From US20210395327A1, “Growth Hormone-Releasing Hormone Antagonists and Uses Thereof” (United States Government As Represented By The Department …, priority 2019, published 2021)
Non-standard residues stand in square brackets, D forms with d. Residues, ends and D or L forms follow the SMILES beside them. *: point of attachment. Phenylacetyl(2,3,4,5,6-F5) = O=C(Cc1c(F)c(F)c(F)c(F)c1F)*; Phe(F5) = N[C@@H](Cc1c(F)c(F)c(F)c(F)c1F)C(=O)O; Phe(4-Cl) = N[C@@H](Cc1ccc(Cl)cc1)C(=O)O; hArg = N=C(N)NCCCC[C@H](N)C(=O)O; 12Ado = NCCCCCCCCCCCC(=O)O; Nle = CCCC[C@H](N)C(=O)O; Abu = CC[C@H](N)C(=O)O

How the values were obtained:
[1] = tested on: lung cancer HCC827 xenograft; test: Xenograft tumor growth in nude mice, HCC827; type: in vivo; details: Table 4B, Lung Ca HCC827, 7 weeks, 5 μg/day s.c.
Method: (§1) The peptides' activity was compared with GHRH antagonist MIA-602. All statistical analyzses were performed from comparing GHRA antagonists to non-treated tumor (control).
(§2) Peptides and chemicals. GHRH antagonists MIA-602 and AVR-GHRH antagonists (see Table 2 above) were synthesized by solid phase methods and purified by HPLC. The peptides were dissolved in DMSO and further diluted in 10% 1,2-propanediol. The final concentration of peptides was 50 µg/ml in 10% 1,2-propanediol containing 0.1% of DMSO.
(§3) Cell culture. Human cancer cell lines including pancreatic (PANC-1 and CFPAC-1), lung (HCC827 and H460), stomach (NCI-N87), prostate (PC3), brest (MX-1 and HCC-1806), colorectal (HT-29), and ovarian (SK-OV-3 and OVCAR-3) were obtained from the American Type Culture Collection (ATCC) and cultured at 37° C. in a humidified 95% air/5% CO2 atmosphere in the medium recommended by ATCC.
(§4) Xenograft models of human cancers in nude mice. Female athymic (NCr nu/nu) nude mice, 5- to 6-weeks-old, obtained from the Envigo labs (Tampa, Fla.), were housed in laminar airflow cabinets under pathogen-free conditions with a 12-h light/12-h dark schedule, and were fed autoclaved standard chow and water. To generate mice with xenografted tumors, tumor xenografts were initiated by subcutaneous (s.c.) injection of 107 human cancer cells into female nude mice. After about 4 weeks the resulting tumors were dissected and collected after removing necrosis tissues. The tumors were then cut into particles with size of 3 mm3 and transplanted s.c. by trocar needle into experimental animals. When tumors grew to the size of 50-60 mm3 (by volume), mice were randomized into groups and treated daily for 4-8 weeks by subcutaneous administration of 5 μg of GHRH antagonists MIA-602 or AVR-compounds (2-10 μg as indicated), or vehicle solutions (0.1% DMSO in 10% 1,2-propanediol) respectively. Tumor sizes were measured weekly.
(§5) Statistical analysis. One-way ANOVA followed by Bonferroni comparison were performed. Data are expressed as Mean±SEM. To determine statistical significance between animal groups, two-tailed Student's t-test was conducted. Differences were considered significant when p<0.05.
(§6) Results. […] FIG. 1A-N represents in vivo inhibition of tumor growth during the treatment with GHRH antagonist MIA-602 and selected AVR antagonists in nude mice xenografted with various human tumors including pancreatic cancer PANC-1 (FIG. 1A) and CFPAC-1 (FIG. 1I); lung cancer HCC827 (FIGS. 1B, C) and H460 (FIG. 1H); stomach cancer N87 (FIGS. 1D-F); colon cancer HT-29 (FIG. 1G); breast cancer MX-1 and HCC-1806 (FIGS. 1J, K); ovarian cancer SK-OV-3 and OVACAR-3 (FIGS. 1 L, M) and prostate cancer PC3 (FIG. 1N). See also Table 5.

[2] = tested on: pancreatic cancer CFPAC-1 xenograft; test: Xenograft tumor growth in nude mice, CFPAC-1; type: in vivo; details: Table 4I, Pancreatic Ca CFPAC-1, 7 weeks; for % Inhibition: vs control
Method: as §1, §2, §3, §4, §5, §6

[3] = tested on: CFPAC-1 pancreatic cancer cells; test: In vitro cell viability, CFPAC-1; type: cell-based, human; details: Table 3B; 5 μM for 72 H; MIA-602 = 1
Method in brief: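 Potency is reported as percent inhibition of viability compared with the reference antagonist MIA602, measured with CellTiter 96 aqueous one solution reagent. Serum-starved cells (0.5% FBS, 24 h) were treated for 72 h, mostly at 5 μM, otherwise 2 μM.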

[4] = tested on: lung cancer H460 xenograft; test: Xenograft tumor growth in nude mice, H460; type: in vivo; details: Table 4H, Lung Ca H460, 4 weeks, 5 μg/day s.c.
Method: as §1, §2, §3, §4, §5, §6

HT-29 colon cancer cells = test: In vitro cell viability, HT-29; type: cell-based, human; details: Table 3B; 5 μM for 72 H; MIA-602 = 1
Method: (§7) The inhibitory effects of the various synthesized GHRH antagonists were tested in cell proliferation assays in various human cancer cell lines including stomach cancer (KATOIII, N87), colon cancer (HT-29), urothelial cancer (J82, RT4), pancreatic cancer (PANC-1, CFPAC-1), prostatic cancer (PC3), breast cancer (MX-1, HCC1806), ovarian cancer (SK-OV-3, OVCAR-3) and lung cancer (HCC827, H460).
as §3, with “(NCI-N87 and KATOIII), urothelial (J82, RT4), prostatic” for “(NCI-N87), prostate”, “breast” for “brest”, “HCC 1806),” for “HCC-1806),”
(§8) In vitro cell viability. Cell viability was analyzed as follows: cancer cells including pancreatic (PANC-1 and CFPAC-1), lung (HCC827 and H460), stomach (NCI-N87 and KATOIII), urothelial (J82, RT4), prostatic (PC3) and breast (MX-1 and HCC 1806), colorectal (HT-29) and ovarian (SK-OV-3 and OVCAR-3) were grown on 96 well plates to ˜60% confluence, the cells were starved for 24 h in culture medium containing 0.5% FBS. Cells were then treated with GHRH antagonists MIA602 AVR compounds at concentrations of 1, 2.5 or 5 μM, or vehicle (0.1% DMSO) in quintuplicates for 72 hours. The medium was replaced every 48 hours. Cell viability was measured using CellTiter 96 aqueous one solution kit (Promega). Inhibitory effects of tested AVR compounds in comparison to that of MIA602 are presented as inhibitory potency.
(§9) Inhibitory effects of selected AVR compounds in comparison to that of MIA602 are presented as inhibitory potency (e.g., percentage of inhibition). […] The cell lines tested including lung cancer HCC827 (FIG. 2A), pancreatic cancer CFPAC-1 (FIG. 2B), stomach cancer N87 (FIG. 2C), colon cancer HT-29 (FIG. 2D), breast cancers MX-1 and HCC1806 (FIGS. 2 E, F). Based on the results of cell proliferation assay after cancer cells were treated with antagonist at concentration of 5 μM for 72H, the relative inhibitory potency of AVR antagonists in comparison to MIA-602 is summarized in Table 3 A and B. Over 60 AVR compounds were tested in 12 cancer cell lines.
(§10) Based on the results of cell proliferation assay after cancer cells were treated with antagonist at concentration of 5 µM for 72H, * at concentration of 2 µM for 72 H.

[5] = tested on: breast cancer MX-1 xenograft; test: Xenograft tumor growth in nude mice, MX-1; type: in vivo; details: Table 4J, Breast Ca MX-1, 4 weeks, 5 μg/day s.c.; for % Inhibition: vs control
Method: as §1, §2, §3, §4, §5, §6

MX-1 breast cancer cells = test: In vitro cell viability, MX-1; type: cell-based, human; details: Table 3B; 5 μM for 72 H; MIA-602 = 1
Method: as §7
as §3, with “(NCI-N87 and KATOIII), urothelial (J82, RT4), prostatic” for “(NCI-N87), prostate”, “breast” for “brest”, “HCC 1806),” for “HCC-1806),”
as §8, §9, §10

[6] = tested on: colon cancer HT-29 xenograft; test: Xenograft tumor growth in nude mice, HT-29; type: in vivo; details: Table 4G, Colon Ca HT-29, 6 weeks, 5 μg/day s.c.
Method: as §1, §2, §3, §4, §5, §6

## CCCC[C@H](NC(=O)[C@@H](NC(=O)[C@H](CC(=O)O)NC(=O)[C@H](CCC(N)=O)NC(=O)[C@H](CC(C)C)NC(=O)[C@H](CC(C)C)NC(=O)[C@H](CCCCN)NC(=O)[C@H](CCCNC(=N)N)NC(=O)[C@H](C)NC(=O)[C@H](CO)NC(=O)[C@H](CC(C)C)NC(=O)[C@H](CCC(N)=O)NC(=O)[C@H](CC)NC(=O)[C@H](CC(C)C)NC(=O)[C@@H](NC(=O)[C@H](CCCCN)NC(=O)[C@H](CCCNC(=N)N)NC(=O)[C@H](Cc1ccc(OC)cc1)NC(=O)[C@H](CCCCNC(=N)N)NC(=O)[C@H](C)NC(=O)[C@@H](NC(=O)[C@H](Cc1c(F)c(F)c(F)c(F)c1F)NC(=O)[C@@H](NC(=O)[C@H](C)NC(=O)[C@H](CC(=O)O)NC(=O)[C@@H](CCCNC(=N)N)NC(=O)[C@H](Cc1ccc(O)cc1)NC(=O)CCCCCCCCCCCNC(=O)Cc1c(F)c(F)c(F)c(F)c1F)[C@@H](C)CC)[C@@H](C)O)C(C)C)[C@@H](C)CC)C(=O)N[C@H](CCCNC(=N)N)C(=O)N[C@@H](CCCCNC(=N)N)C(=O)NCCCCCCCCCCCC(N)=O [AVR-352, 5FPhAC-Ada-Tyr-DArg-Asp-Ala-Ile-5FPhe-Thr-Ala-Har-Tyr(Me)-Arg-Lys-Val-Leu-Abu-Gln-Leu-Ser-Ala-Arg-Lys-Leu-Leu-Gln-Asp-Ile-Nle-DArg-Har-Ada-NH2] ({Phenylacetyl(2,3,4,5,6-F5)-12Ado}-Y[dR]DAI[Phe(F5)]TA[hArg]Y(Me)RKVL[Abu]QLSARKLLQDI[Nle][dR][hArg][12Ado]-NH2)
[1]
  Tumor Growth %: 371.7%
[1]; vs control
  % Inhibition: 71.6%
[2]; 2.5 μg/day s.c.
  Tumor Growth %: 1616.9%
  % Inhibition: 18.0%
[2]; 5 μg/day s.c.
  Tumor Growth %: 1448.4%
  % Inhibition: 26.5%
[3]
  In vitro relative inhibitory potency in comparison to MIA-602, CFPAC-1: 1.576
[4]
  Tumor Growth %: 1738.3%
[4]; vs control
  % Inhibition: 48.6%
HT-29 colon cancer cells
  In vitro relative inhibitory potency in comparison to MIA-602, HT-29: 1.197
[5]
  Tumor Growth %: 673.2%
  % Inhibition: 39.5%
MX-1 breast cancer cells
  In vitro relative inhibitory potency in comparison to MIA-602, MX-1: 2.793

## CCCC[C@H](NC(=O)[C@@H](NC(=O)[C@H](CC(=O)O)NC(=O)[C@H](CCC(N)=O)NC(=O)[C@H](CC(C)C)NC(=O)[C@H](CC(C)C)NC(=O)[C@H](CCCCN)NC(=O)[C@H](CCCNC(=N)N)NC(=O)[C@H](C)NC(=O)[C@H](CO)NC(=O)[C@H](CC(C)C)NC(=O)[C@H](CCC(N)=O)NC(=O)[C@H](CC)NC(=O)[C@H](CC(C)C)NC(=O)[C@@H](NC(=O)[C@H](CCCCN)NC(=O)[C@H](CCCNC(=N)N)NC(=O)[C@H](Cc1c(F)c(F)c(F)c(F)c1F)NC(=O)[C@H](CCCCNC(=N)N)NC(=O)[C@H](C)NC(=O)[C@@H](NC(=O)[C@H](Cc1ccc(Cl)cc1)NC(=O)[C@@H](NC(=O)[C@H](C)NC(=O)[C@H](CC(=O)O)NC(=O)[C@@H](CCCNC(=N)N)NC(=O)[C@H](Cc1ccc(O)cc1)NC(=O)CCCCCCCCCCCNC(=O)Cc1c(F)c(F)c(F)c(F)c1F)[C@@H](C)CC)[C@@H](C)O)C(C)C)[C@@H](C)CC)C(=O)N[C@H](CCCNC(=N)N)C(=O)N[C@@H](CCCCNC(=N)N)C(=O)NCCCCCCCCCCCC(=O)NC [AVR-354] ({Phenylacetyl(2,3,4,5,6-F5)-12Ado}-Y[dR]DAI[Phe(4-Cl)]TA[hArg][Phe(F5)]RKVL[Abu]QLSARKLLQDI[Nle][dR][hArg][12Ado]-NHMe)
[3]
  In vitro relative inhibitory potency in comparison to MIA-602, CFPAC-1: 1.67
[6]
  Tumor Size (mm^3): 417.90 mm^3
[6]; vs control
  % Inhibition: 42.3%
HT-29 colon cancer cells
  In vitro relative inhibitory potency in comparison to MIA-602, HT-29: 1.403
[5]
  Tumor Growth %: 488.3%
  % Inhibition: 56.2%
MX-1 breast cancer cells
  In vitro relative inhibitory potency in comparison to MIA-602, MX-1: 1.594
